Test results published in article PMC12346769, “Activity Analysis and Inhibition Mechanism of Four Novel Angiotensin I-Converting Enzyme Inhibitory Peptides Prepared from Flammulina velutipes by Enzymatic Hydrolysis” (Foods, 2025).
Marks after values point to notes of the source that are not given here. Where a SMILES comes first, the peptide text is derived from it. Where no end group is shown, it is not given here.

Biological target: T1, ACE (Homo sapiens, UniProt P12821)
T1 construct: purchased Shanghai Yuanye Biotechnology Co., Ltd
Test: ACE inhibition rate / IC50 determination with FAPGG substrate (absorbance 340 nm)
Assay type: biochemical
Conditions: for Inhibitory effect as % of the positive control: ACE inhibition rate relative to captopril; for IC50 / Inhibition Rate of ACE: synthesized peptides, captopril as positive control; for Inhibition Rate of ACE: test concentration not given
Method: The ACE inhibition rate was determined according to the method developed by Wang. In brief, 1 mmol/L FAPGG solution, 0.1 U/mL ACE solution, and F. velutipes protein solution were mixed in 80 mmol/L HEPES buffer (pH 8.2), and the mixture was added to 96-well plates according to Table 1. The absorbance value at the wavelength of 340 nm at 37 °C and the absorbance value after 30 min of reaction were measured. The calculation formula is as follows: (2) Inhibition Rate of ACE%=(1−ΔA/ΔB)×100
In the formula, ΔA = A1 − A2; ΔB = B1 − B2. ΔA was the absorbance value of the sample pore solution; ΔB was the absorbance value of the control pore solution. A1 and B1 were the absorbance values measured at the wavelength of 340 nm. A2 and B2 were the absorbance values measured at the wavelength of 340 nm after reacting for 30 min at 37 °C.
Wuhan Dangang Biotechnology Co., Ltd. (Wuhan, China) was commissioned to synthesize the peptides. […] With captopril as the positive control, the ACE inhibition rate and IC50 of the above synthetic peptides were determined according to the method of Section 2.5.

T1 sequence (P12821 30-1306, species assumed): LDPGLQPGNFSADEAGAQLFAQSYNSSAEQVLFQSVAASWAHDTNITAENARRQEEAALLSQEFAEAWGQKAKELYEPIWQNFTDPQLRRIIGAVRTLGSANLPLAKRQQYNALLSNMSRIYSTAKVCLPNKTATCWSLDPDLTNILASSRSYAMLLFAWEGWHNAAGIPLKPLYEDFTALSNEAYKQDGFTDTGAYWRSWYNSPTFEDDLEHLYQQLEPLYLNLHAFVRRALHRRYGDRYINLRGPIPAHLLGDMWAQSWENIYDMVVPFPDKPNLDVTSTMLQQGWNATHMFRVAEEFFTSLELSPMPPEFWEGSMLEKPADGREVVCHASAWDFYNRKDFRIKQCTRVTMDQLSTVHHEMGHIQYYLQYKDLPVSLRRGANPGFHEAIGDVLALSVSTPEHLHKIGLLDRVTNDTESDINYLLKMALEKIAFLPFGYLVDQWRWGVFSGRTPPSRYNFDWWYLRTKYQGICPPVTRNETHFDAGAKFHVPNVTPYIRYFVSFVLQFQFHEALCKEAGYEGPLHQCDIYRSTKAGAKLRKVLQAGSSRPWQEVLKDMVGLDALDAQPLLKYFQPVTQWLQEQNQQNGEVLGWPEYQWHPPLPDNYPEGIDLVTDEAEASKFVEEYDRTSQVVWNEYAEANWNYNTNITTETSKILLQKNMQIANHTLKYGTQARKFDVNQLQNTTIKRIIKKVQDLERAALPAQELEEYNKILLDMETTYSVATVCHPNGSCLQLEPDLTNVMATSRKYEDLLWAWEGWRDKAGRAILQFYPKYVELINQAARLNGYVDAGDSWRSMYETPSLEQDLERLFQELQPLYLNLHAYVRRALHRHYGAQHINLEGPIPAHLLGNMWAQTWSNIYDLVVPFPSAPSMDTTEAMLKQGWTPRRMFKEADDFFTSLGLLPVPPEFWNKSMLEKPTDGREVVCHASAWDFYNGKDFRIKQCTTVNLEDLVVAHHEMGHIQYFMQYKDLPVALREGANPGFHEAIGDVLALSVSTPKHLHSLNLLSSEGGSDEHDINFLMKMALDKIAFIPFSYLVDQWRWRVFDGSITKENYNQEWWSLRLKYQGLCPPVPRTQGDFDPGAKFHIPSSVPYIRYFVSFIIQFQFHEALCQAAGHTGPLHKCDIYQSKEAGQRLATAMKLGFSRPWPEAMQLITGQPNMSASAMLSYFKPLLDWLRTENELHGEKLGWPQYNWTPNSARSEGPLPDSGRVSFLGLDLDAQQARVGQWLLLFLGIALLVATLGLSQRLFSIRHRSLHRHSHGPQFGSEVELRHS

| Molecule | Inhibitory effect as % of the positive control | IC50 | Inhibition Rate of ACE |
| --- | --- | --- | --- |
| N[C@@H](Cc1ccccc1)C(=O)N[C@@H](CC(=O)O)C(=O)NCC(=O)N[C@@H](Cc1ccc(O)cc1)C(=O)O [FDGY] (H-FDGY-OH; N-terminus and C-terminus assumed) | 81.53% | 91.5 ± 1.09 µM | 80.48 ± 0.84 ^e % |
| C[C@H](NC(=O)[C@@H](N)Cc1c[nH]c2ccccc12)C(=O)N[C@@H](CC(=O)O)C(=O)N1CCC[C@H]1C(=O)O [WADP] (H-WADP-OH; N-terminus and C-terminus assumed) | 84.13% | 41.3 ± 0.7 µM | 83.04 ± 0.68 ^d % |
| FAGGP [FAGGP] | 87.04% | 29.2 ± 1.37 µM | 85.92 ± 1.81 ^c % |
| FHPGY [FHPGY] | 92.60% | 14.8 ± 0.34 µM | 91.41 ± 1.01 ^b % |
